Measurements from patent publication US20250129127A1, “Systems for Amplification of AAV Rep and Cap Proteins” (priority 2022, published 2025).
Like-named read-outs stand apart in the source and are kept apart here.

Columns and labels:
T223 cells = tested on: T223 cells
Excerpt: FIG. 9 provides a schematic for GS repression/inhibition for the pathways described in FIG. 8. A GS-KO P2 cell line is independently transfected with the various Rep/Cap GS constructs (see above and FIG. 8). P3 cells are selected in cell culture media lacking glutamine (-Gln) to select for cells expressing a higher level of GS.

AAV capsid = experiment: Capsid ELISA for total capsid titer after induction; type: cell-based; settings: 1000 uM MSX; Fuji cell culture media lacking Gln; compared to T223 cells not exposed to MSX
Procedure: (§1) Capsid ELISA was performed to determine total capsid titer. Nuclease treatment and qPCR were performed to determine the titer of capsids encapsidating the viral genome (e.g., the payload construct). […] Fuij 7-2 cell media with 4 mM glutamax was used in the cell culture.

AAV viral genomes = experiment: Titer of capsids encapsidating the viral genome by nuclease treatment and qPCR after induction with doxycycline and tamoxifen; type: cell-based; settings: 1000 uM MSX; Fuji cell culture media lacking Gln; compared to T223 cells not exposed to MSX
Procedure: as §1

SMILES: CS(=N)(=O)CC[C@H](N)C(=O)O (some centres unmarked) [MSX, methionine sulfoximine]
- MSX concentration from which survival is impacted (T223 cells; P3 T223 cells expressing wild type GS): ≥ 250 µM
- MSX concentration from which survival is impacted (T223 cells; T223 cells expressing full length GS, selective media): ≥ 250 µM
- reduction of viability (T223 cells; T223 cells, 500 uM MSX (of 50, 100, 250, 500 uM tested)): most effective in reducing viability
- viral particles (Capsids/mL) in T223 cells (AAV capsid): increased levels
- viral genomes (vg/mL) in T223 cells (AAV viral genomes): increased levels
